Experimental data published in patent US20210275562A1, “CANCER TREATMENT METHODS” (priority 2020, published 2021).

Key:
[1] = tested on: S phase cells; assay: BRDU/EDU injection labelling of S phase cells in living animals; assay type: in vivo, mouse
Source text: It has been estimated in the literature that the cell cycle would be between 12 hr and 2 days in the crypt cells of the gut. These are the cells that are constantly dividing and give rise to mature gut cells forming the lining of the intestinal tract. […] Both EDU and BRDU are incorporated only into DNA of cells actively synthesizing DNA, S phase cells. Both are rapidly removed from circulation if not incorporated into DNA, so that a cell containing EDU or BRDU in its DNA would have been in S phase at the time of injection, or shortly thereafter. Indeed, an injection of either marker is effectively a 1 hr pulse with that marker. BRDU is identified with an antibody stain, while EDU is identified by a separate chemical stain. Different fluorochromes are used to identify the two stains, so that cells which incorporated either, or both, can readily be identified. With the use of our image analysis approach, the labeling with each fluorochrome can be accurately quantitated.
Thus, with EDU and BRDU, it was possible to determine which cells had been in S phase at two different times. BRDU was normally injected intraperitoneally (IP) into animals at time zero. […] 40 minutes following the EDU injection the animals were euthanized and tissues collected, imbedded in paraffin, and stained. It was possible to tell which cells had been in S phase at the beginning of the experiment from the BRDU stain. […]

[2] = tested on: crypt cells; assay: Proof of principle: two EDU injections in mice given BRDU in drinking water; assay type: in vivo, mouse
Procedure: The experiment to validate this procedure was designed as follows: Mice were given BRDU in their drinking water at the beginning of the experiments. This constant supply of BRDU would label all proliferative cells over the length of the experiment. 4 hr after BRDU-containing drinking water was given to the animals, two injections of EDU were given. These injections were spaced 5, 8, 11, 14, 17, and 20 hr apart in separate animals. At 40 min following the final injection tissue was collected, fixed, imbedded, stained, and analyzed as described above. The goal was to determine how many cells were labeled with BRDU and NOT WITH EDU. EDU in this experiment represents the toxic treatment. Any cell labelled with EDU would be expected to be killed by the appropriate S phase specific toxin. The surviving cells would, therefore, be identified by BRDU positive, EDU negative cells. As with many proof of principle experiments, this one has a drawback that must be considered. BRDU remains present in cells that differentiate and move up the villi towards the lumen of the gut. Cells on the verge of terminal differentiation would be labelled with BRDU but cease dividing prior to the administration of EDU. This would result in an over-estimate of the number of BRDU+ and EDU− cells (those that survive the treatments), particularly at later times in the analysis. […]

SMILES: O=c1[nH]c(=O)n([C@H]2C[C@H](O)[C@@H](CO)O2)cc1Br [BRDU, bromodeoxyuridine]
- effective pulse length of the marker after one injection ([1]; mouse, in vivo): 1 h

SMILES: C#Cc1cn([C@H]2C[C@H](O)[C@@H](CO)O2)c(=O)[nH]c1=O [EDU, 5-ethynyl-2′-deoxyuridine]
- effective pulse length of the marker after one injection ([1]; rapidly removed from circulation if not incorporated into DNA): 1 h
- BRDU positive cells remaining unlabeled with EDU (cells proposed to survive treatment) ([2]; two EDU injections spaced 14 hr apart): ~40%
- level of BRDU+ and EDU- cells (cells proposed to survive treatment) ([2]; two EDU injections spaced 17 hr apart, may be overestimated): remain high
